Test results published in paper PMC5570900, “Exploiting a novel conformational switch to control innate immunity mediated by complement protein C3a” (Nature Communications, 2017).

Columns and labels:
C3aR [1] = target: T1, C3aR (Homo sapiens, UniProt Q16581); experiment: Inhibition of hC3a-induced Ca2+ release in human monocyte-derived macrophages; format: cell-based; set-up: Concentration-dependent Ca^2+ release in human monocyte-derived macrophages (HMDMs); endogenous in cells; host or cells: primary human monocyte-derived macrophages (HMDMs); conditions: HMDMs, hC3a 100 nM, n ≥ 3, ± SEM
T1 sequence (Q16581 1-482): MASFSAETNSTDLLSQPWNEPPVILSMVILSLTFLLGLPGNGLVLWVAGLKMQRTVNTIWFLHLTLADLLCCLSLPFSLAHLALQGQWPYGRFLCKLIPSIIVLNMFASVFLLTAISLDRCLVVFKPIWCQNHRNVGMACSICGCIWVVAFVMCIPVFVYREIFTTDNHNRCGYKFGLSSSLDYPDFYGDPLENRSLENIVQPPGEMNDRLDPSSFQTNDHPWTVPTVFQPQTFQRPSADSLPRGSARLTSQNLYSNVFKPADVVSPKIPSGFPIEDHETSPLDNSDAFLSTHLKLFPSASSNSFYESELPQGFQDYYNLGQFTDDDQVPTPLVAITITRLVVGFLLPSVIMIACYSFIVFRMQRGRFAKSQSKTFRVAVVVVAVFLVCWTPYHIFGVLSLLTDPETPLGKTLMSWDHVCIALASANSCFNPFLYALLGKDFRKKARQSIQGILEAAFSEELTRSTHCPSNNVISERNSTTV
Procedure: HMDMs were isolated using Ficoll-paque density centrifugation (GE Healthcare Bio-Science, Uppsala, Sweden) from buffy coat (of anonymous human donors) provided by the Australian Red Cross Blood Service, Brisbane. CD14^+ monocytes were positively selected using CD14 MicroBeads (Miltenyi Biotech, Auburn, USA)[40], [41]. CD14^+ monocytes were differentiated to HMDMs using 100 ng/mL of recombinant human macrophage colony-stimulating factor (PeptroTech, Rocky Hill, USA) for 7 days in Iscove’s modified Dulbecco’s media supplemented with 10% fetal bovine serum, penicillin (100 U/mL), streptomycin (100 µg/mL) and L-glutamine (2 mM). HMDMs were supplemented after 5 days with fresh medium containing 10 ng/ml macrophage colony-stimulating factor and collected by gentle scraping on day 7.
HMDMs were seeded to a 96-well clear-bottom black-wall assay plate at a density of 5 × 10^4 cells per well and allowed to adhere overnight. Prior to assay, cells were incubated with dye-loading buffer (Hank’s balance salt solution (HBSS) buffer, 4 μM Fluo-3 AM, 25 μl Pluronic acid F-127 and 1% fetal bovine serum) for 1 h at 37 °C. Cells were then washed once with assay buffer (HBSS supplemented with 2.5 mM probenecid and 20 mM HEPES, pH 7.4). Intracellular calcium release was monitored using a fluorescence imaging plate reader (excitation 495 nm, emission 520 nm). The percentage responses were plotted against logarithmic concentrations of each test compound[42].

C3aR [2] = target: T1, C3aR; experiment: Histamine secretion in human LAD2 mast cells (agonist mode); format: cell-based; set-up: Concentration-dependent histamine secretion in human LAD2 mast cells; endogenous in cells; host or cells: LAD2 human mast cells; conditions: compound alone, 30 min, n ≥ 3, ± SEM
Procedure: LAD2 human mast cells (kindly provided by Dr Dean Metcalfe, National Institute of Allergy and Infectious Diseases, National Institute of Health) were cultured in StemPro®-34 Serum Free Media (Invitrogen, Australia) supplemented with StemPro®-34 nutrient, 100 U/mL penicillin, 100 μg/mL streptomycin, 2 mM GlutaMAX, and 100 ng/mL human stem cell factor (SCF). Cells were hemi-depleted weekly and were not allowed to grow beyond a density of 0.5 × 10^6/mL. This cell line was authenticated by expression of tryptase and histamine granules. For the histamine assay, 1 × 10^4 cells per well were seeded in StemPro®-34 SFM in 96-well plates for 30 min before any treatments. For agonist studies, the cells were treated with compounds prepared in media for 30 min. For antagonist studies, the cells were pre-treated with compounds prepared in SFM for 30 min before addition of C3aR agonists for another 30 min. Cells were centrifuged (500 g, 5 min, 4 °C) and cell-free supernatants were collected for measuring histamine. Histamine content was measured using the histamine EIA kit according to the manufacturer’s instructions (Abnova, Taiwan). The readings were recorded on a FLUOstar Optima (BMG LabTechnologies, Offenburg, Germany).

Row | SMILES | IC50 (C3aR [1]) [µM] | EC50 (C3aR [2]) [µM]
1 | N=C(N)NCCCC(NC(=O)c1ccc(C(c2ccccc2)c2ccccc2)s1)C(=O)O (centres unmarked) [Compound 6] | 0.085 ± 0.04 | –
2 | Cc1[nH]c(C(c2ccccc2)c2ccccc2)nc1C(=O)N[C@@H](CCCNC(=N)N)C(=O)O [Compound 3] | – | 0.02 ± 0.01
